Results on 12 molecules are retold here after article PMC6537702, “Design, synthesis, molecular modelling, and biological evaluation of novel substituted pyrimidine derivatives as potential anticancer agents for hepatocellular carcinoma” (Journal of Enzyme Inhibition and Medicinal Chemistry, 2019).

The test system of data set [1] is HepG2 cell line. Description: Resazurin cell growth inhibition assay, HepG2. In kind it is cell-based, human. The settings on record: for IC50: Homo sapiens. From the text: (§1) All compounds 2a-e, 3a-d, and PPAD’s 4a-t were subjected to a screening system for evaluation of their anticancer activity against cell line of human cancer, namely liver (HepG2 and Huh-7) cancer and normal fibroblast cells obtained from the German Cancer Research Center (DKFZ), following the Resazurin Cell Growth Inhibition Assay[45] in comparison to the standard treatment using DOX (see Supplementary).
(§2) Cell culture and treatment
(§3) All reagents were handled in a sterile fume hood. DMEM medium, and fetal bovine serum (FBS) were purchased from Gibco;phosphate-buffered saline pH 7.4 (PBS) and trypsin-EDTA were obtained from Sigmae Aldrich. Alamar Blue or Resazurin (Promega,Mannheim, Germany) reduction assay was used to assess the cytotoxicity of the studied samples. The growth medium (DMEMmedium with 10% FBS, 10 0 U/mL penicillin, and 10 0 mg/L streptomycin), and alamar blue were stored at 48 C, while trypsineEDTA and FBS were stored frozen at 208C and thawed before use; PBS was stored at room temperature. The Hep-G2, Huh-7 and normal fibroblast cells were obtained from the German Cancer Research Center (DKFZ).Cells were cultured in 50 cm2 culture flask s (Corning) using DMEM medium supplemented with 10% FBS, penicillin (10 0 IU/mL), and streptomycin ([…]). The culture was maintained at 37 C atmosphere of 5% CO2 and 95% relative humidity. The cells were transferred to a new fl ask every 2 days and treated with trypsineEDTA to detach them from the flask . Cells were counted under a microscope using a hemacytometer (Hausser Scientific).Cell solutions were diluted with growth medium to a concentration of 1 *10^5 cells/mL and transferred to a 96-well plate, and treated with gradient concentrations of test compounds.
(§4) Resazurin cell growth inhibition assay
(§5) Alamar Blue or Resazurin (Promega, Mannheim, Germany) reduction assay was used to assess the cytotoxicity of the studied samples. The assay tests cellular viability and mitochondrial function. Briefly y, adherent cells were grown in tissue culture flask s, and then harvested by treating the fl asks with 0.025% trypsin and0.25 mM EDTA for 5 min. Once detached, cells were washed, counted and an aliquot (5 * 103cells) was placed in each well of a96-well cell culture plate in a total volume of […]. Cells were allowed to attach overnight and then treated with samples. The final concentration of samples ranged from 0 to 10 0 mM. After 4 8 h,[…] Resazurin 0.01% w/v solution was added to each well and the plates were incubated at 37C for 1 -2 h. Fluorescence was measured on an automated 96-well Infinite M2000 ProTM plate reader (Tecan, Crailsheim, Germany) using an excit ation wave-length of 54 4 nm and an emission wavelength of 590 nm. Doxorubicin was used as positive control. Each assay was done at least three times, with two replicates each. The viability was compared based on a comparison with untreated cells. IC50(on cancer cells) were the concentration of sample required to inhibit 50% of the cell proliferation and were calculated from a calibration curve by a linear regression using Microsoft Excel
A general note: Resazurin is reduced to fluorescent resorufin, in cell work by metabolically active cells.

In data set [2] the test system is Huh-7 cell line. Briefly: Resazurin cell growth inhibition assay, Huh-7. In kind it is cell-based, human. The settings on record: for IC50: Homo sapiens.
Source text: as §1, §2, §3, §4, §5

Data set [3] can be described thus: Resazurin cell growth inhibition assay, normal fibroblast cells. In kind it is cell-based. The settings on record: M ± SEM of three independent experiments, read-out: Cytotoxic activity IC50, Fibroblast.
Source text: as §1, §2, §3, §4, §5

[4] abbreviates: HepG2, 48 h, resazurin assay, 48 h, M ± SEM of three independent experiments, read-out: Cytotoxic activity IC50, HepG2 cell line.
[5] abbreviates: Huh-7, 48 h, resazurin assay, 48 h, M ± SEM of three independent experiments, read-out: Cytotoxic activity IC50, Huh-7 cell line.
Setting [6] is: HepG2, converted from μg/mL, read-out: IC50 against HepG2 cell line, equivalent in μM.
Where [7] appears, read: resazurin assay, 48 h, M ± SEM of three independent experiments.

≈ marks a conversion by molar mass, not a printed value. Where two headings read alike, the source gives them in different places.

Consider `N#Cc1c(-c2ccc(F)cc2)nc(N2N=C(c3c4ccccc4cc4ccccc34)CC2c2c[nH]c3ccccc23)[nH]c1=O` (stereo not drawn) [Compound 4h, 2-[3-Anthracene-9-yl-5-(1H-indol-3-yl)-4,5-dihydro-pyrazol-1-yl]-4–(4-fluoro-phenyl)-6-oxo-1,6-dihydro-pyrimidine-5-carbonitrile], for which the melting point – broadly, the temperature, or range, at which the solid turns liquid – is 143 to 145 °C. In addition, in data set [1] (setting [4]), the IC50 (in general, the concentration that gives 50% inhibition) turned out to be 7.45 ± 1.11 µg/mL. For the same molecule, in data set [2] (setting [5]), the IC50 amounted to 9.77 ± 1.48 µg/mL. The IC50 at 48 h in data set [3] amounted to 23.5 ± 4.21 µg/mL (≈ 40.9 µM).

Consider `COc1cc(/C=C/C(=O)c2c3ccccc3cc3ccccc23)cc(OC)c1OC` [Compound 3c], for which the IC50 in data set [1] (setting [4]) worked out at 21.5 ± 2.54 µg/mL; in data set [2] (setting [5]), 21.5 ± 4.13 µg/mL. For the same molecule, in data set [3], the IC50 at 48 h was found to be 40.8 ± 4.51 µg/mL (≈ 102 µM).

In the case of `N#Cc1c(-c2ccc(F)cc2)nc(NN)[nH]c1=O` [Compound 2b], the values for the IC50 in data set [1] (setting [4]) and in data set [2] (setting [5]) were 22.2 ± 2.2 µg/mL and 21.6 ± 2.19 µg/mL, respectively. In addition, in data set [3], the IC50 at 48 h was found to be 40.6 ± 2.45 µg/mL (≈ 165 µM).

Consider `COc1cc(-c2nc(N3N=C(c4c5ccccc5cc5ccccc45)CC3c3c[nH]c4ccccc34)[nH]c(=O)c2C#N)cc(OC)c1OC` (stereo not drawn) [Compound 4p, 2-[3-Anthracene-9-yl-5-(1H-indol-3-yl)-4,5-dihydro-pyrazol-1-yl]-6-oxo-4–(3,4,5-trimethoxy-phenyl)-1,6-dihydro-pyrimidine-5-carbonitrile], for which the IC50 in data set [1] (setting [4]) worked out at 11.2 ± 1.2 µg/mL; in data set [2] (setting [5]) it was 8.14 ± 1.65 µg/mL. Further, the IC50 at 48 h in data set [3] was determined as 18.2 ± 4.02 µg/mL (≈ 28.2 µM).

For the molecule `O=C(/C=C/c1ccc(F)cc1)c1c2ccccc2cc2ccccc12` [Compound 3a], the IC50 in data set [1] (setting [4]) was 22.2 ± 2.45 µg/mL; in data set [2] (setting [5]), 21.8 ± 1.24 µg/mL. The IC50 at 48 h in data set [3] was 40.6 ± 2.48 µg/mL (≈ 124 µM).

`COc1cccc2c1C(=O)c1c(O)c3c(c(O)c1C2=O)C[C@@](O)(C(=O)CO)C[C@@H]3O[C@H]1C[C@H](N)[C@H](O)[C@H](C)O1` [Doxorubicin, reference compound]: the IC50 in data set [1] (setting [4]) turned out to be 5.43 ± 0.24 µg/mL; in data set [1] (setting [6]), 10.1 µM; in data set [2] (setting [5]), 5.43 µg/mL. The “Cytotoxic activity IC50, Huh-7 cell line” value in data set [2] (setting [7]) was determined as 6.40 ± 0.43 µg/mL. In addition, the IC50 at 48 h in data set [3] was determined as 24.1 ± 3.53 µg/mL (≈ 44.4 µM).

As to `CN(C)c1ccc(/C=C/C(=O)c2c3ccccc3cc3ccccc23)cc1` [Compound 3b], the IC50 turned out to be 21.4 ± 2.76 µg/mL in data set [1] (setting [4]) and 21 ± 1.12 µg/mL in data set [2] (setting [5]). The IC50 at 48 h in data set [3] came to 40.7 ± 2.34 µg/mL (≈ 116 µM).

On to `CN(C)c1ccc(C2CC(c3c4ccccc4cc4ccccc34)=NN2c2nc(-c3ccc(F)cc3)c(C#N)c(=O)[nH]2)cc1` (stereo not drawn) [Compound 4f, 2-[3-Anthracene-9-yl-5–(4-dimethylamino-phenyl)-4,5-dihydro-pyrazol-1-yl]-4–(4-fluoro-phenyl)-6-oxo-1,6-dihydro-pyrimidine-5-carbonitrile], for which the IC50 in data set [1] (setting [4]) was found to be 4.2 µg/mL; in data set [1] (setting [6]), 7.2 µM; in data set [2] (setting [5]), 8.45 ± 0.75 µg/mL. In addition, the “Cytotoxic activity IC50, HepG2 cell line” value in data set [1] (setting [7]) amounted to 4.22 ± 0.94 µg/mL. The IC50 at 48 h in data set [3] turned out to be 33.1 ± 6.52 µg/mL (≈ 57.3 µM).

As for `COc1cc(C2CC(c3c4ccccc4cc4ccccc34)=NN2c2nc(-c3ccc(F)cc3)c(C#N)c(=O)[nH]2)cc(OC)c1OC` (stereo not drawn) [Compound 4g, 2-[3-Anthracene-9-yl-5–(3,4,5-trimethoxy-phenyl)-4,5-dihydro-pyrazol-1-yl]-4–(4-fluoro-phenyl)-6-oxo-1,6-dihydro-pyrimidine-5-carbonitrile], the IC50 in data set [1] (setting [4]) is 7.22 ± 1.85 µg/mL; in data set [2] (setting [5]) it was 4.78 ± 0.24 µg/mL; in data set [2] (Huh-7, converted from μg/mL, read-out: IC50 against Huh-7 cell line, equivalent in μM), 7.6 µM. Further, the IC50 at 48 h in data set [3] was found to be 25.3 ± 4.87 µg/mL (≈ 40.5 µM).

`COc1cc(-c2nc(NN)[nH]c(=O)c2C#N)cc(OC)c1OC` [Compound 2d]: the IC50 in data set [1] (setting [4]) was found to be 20.6 ± 2.14 µg/mL; in data set [2] (setting [5]), 21.8 ± 3.18 µg/mL. In addition, in data set [3], the IC50 at 48 h is 40.1 ± 1.37 µg/mL (≈ 126 µM).

`N#Cc1c(-c2ccccc2)nc(NN)[nH]c1=O` [Compound 2a]: the IC50 in data set [1] (setting [4]) is 20.8 ± 1.6 µg/mL; in data set [2] (setting [5]), 21.7 ± 1.18 µg/mL. The IC50 at 48 h in data set [3] came out at 40 ± 1.24 µg/mL (≈ 176 µM).

As to `N#Cc1c(-c2c[nH]c3ccccc23)nc(NN)[nH]c1=O` [Compound 2c], the figures for the IC50 in data set [1] (setting [4]) and in data set [2] (setting [5]) were 20.2 ± 1.88 µg/mL and 21.3 ± 2.37 µg/mL, respectively. Further, in data set [3], the IC50 at 48 h is 40.2 ± 2.13 µg/mL (≈ 151 µM).
